Results taken from article PMC5411959, “Potential Antiosteoporotic Natural Product Lead Compounds That Inhibit 17β-Hydroxysteroid Dehydrogenase Type 2” (Journal of Natural Products, 2017).
Like-named read-outs stand apart in the source and are kept apart here.

Experiments:
[1] = Compound stability in the test system (repeated and prolonged incubation, thawing-freezing cycles); format: physicochemical; conditions: prolonged incubation, IC50 in weeks 1 and 3, thawing-freezing cycles
Text: extent these PAINS should be excluded from further research. Much more data is needed to finally provide directions for the use of PAINS filters4.
Besides these general aspects of PAINS, there are of course many arguments about curcumin itself as a hit. We are aware of the compound’s many reported bioactivities observed in in vitro studies and additionally of its very poor bioavailability. However, this study is a proof of concept study identifying many natural products inhibiting 17β-HSD2 when there is direct access to the binding site and we categorize curcumin as one of them. Why? A very recent analysis of curcumin data […]
Criterion 1. Look for evidence of compound stability in assay buffer/media, including when molecular models are invoked as supporting evidence of target engagement.
We observed no significant changes in inhibition in the experimental repetition also when the incubation time was prolonged. Actually, the assay duration is only 10 minutes and the compound has direct access to the binding site when using cell […]
Criterion 2. Look for the presence of detergent and thiol-scavenging reagents in biochemical assays to mitigate the impact of chemical aggregation and nonspecific thiol reactivity. Are/were any additional counterscreens performed to rule out these phenomena? […]
reactivity would alter the enzymes activities. Also this has not been observed.

human 17β-HSD2 = biological target: T1, human 17β-HSD2 (Homo sapiens, UniProt P37059); experiment: 17β-HSD2 activity assay using lysates of HEK-293 cells expressing the recombinant human enzyme; format: biochemical; conditions: for IC50: HEK-293 lysates, 200 nM estradiol, 500 μM NAD+, 10 min 37 °C;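 for all read-outs here: conversion of tritium-labelled estradiol (200 nM, with 500 µM NAD+, 10 min) quantified after TLC separation by scintillation counting, at least three independent measurements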
T1 construct: expressed in transfected cells; host or cells: HEK-293 (ATCC), used as cell lysate
T1 sequence (P37059 1-387): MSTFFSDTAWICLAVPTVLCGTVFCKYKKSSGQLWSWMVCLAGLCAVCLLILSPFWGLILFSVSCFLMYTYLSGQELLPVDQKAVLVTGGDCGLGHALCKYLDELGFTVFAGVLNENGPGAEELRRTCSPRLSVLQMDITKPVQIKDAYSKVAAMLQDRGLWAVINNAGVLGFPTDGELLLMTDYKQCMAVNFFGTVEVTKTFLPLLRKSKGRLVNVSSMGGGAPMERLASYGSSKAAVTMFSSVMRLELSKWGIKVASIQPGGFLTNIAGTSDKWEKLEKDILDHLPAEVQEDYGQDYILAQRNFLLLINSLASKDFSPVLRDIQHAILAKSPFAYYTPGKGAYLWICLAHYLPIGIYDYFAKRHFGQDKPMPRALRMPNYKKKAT

human 17β-HSD1 = biological target: T2, human 17β-HSD1 (Homo sapiens, UniProt P14061); experiment: 17β-HSD1 activity assay using lysates of HEK-293 cells expressing the recombinant human enzyme; format: biochemical; conditions: for selectivity factor: 17β-HSD1 versus 17β-HSD2; for remaining activity at 20 µM: read-out: 17β-HSD1 remaining activity at 20 μM; for IC50: HEK-293 lysates, 200 nM estrone, 500 μM NADPH; for 17β-HSD1 inhibition (in words; n.i. = no inhibition): screened at 20 μM
T2 construct: expressed in transfected cells; host or cells: HEK-293 (ATCC), used as cell lysate
T2 sequence (P14061 1-328): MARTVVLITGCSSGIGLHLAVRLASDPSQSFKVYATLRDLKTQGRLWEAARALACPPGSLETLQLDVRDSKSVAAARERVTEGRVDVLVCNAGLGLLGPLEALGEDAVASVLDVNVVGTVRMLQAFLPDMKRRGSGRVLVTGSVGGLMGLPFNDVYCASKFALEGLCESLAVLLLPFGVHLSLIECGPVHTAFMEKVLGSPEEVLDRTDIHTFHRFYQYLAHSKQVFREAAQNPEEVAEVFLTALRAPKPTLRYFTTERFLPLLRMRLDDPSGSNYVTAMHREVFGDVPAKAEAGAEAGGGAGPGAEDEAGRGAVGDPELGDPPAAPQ

17β-HSD = system: 17β-HSD; set-up: method as in PMID 11731908; conditions: cited from earlier work
human ERα = system: human ERα; set-up: method as in PMID 25106881; conditions: reported; read-out: ERα activation EC50; cited from earlier work

| Structure (SMILES) | IC50 (human 17β-HSD2) | selectivity factor (human 17β-HSD1) | IC50 (human 17β-HSD1) | 17β-HSD1 inhibition (in words; n.i. = no inhibition) (human 17β-HSD1) | further results |
| --- | --- | --- | --- | --- | --- |
| COc1cc(/C=C/C(=O)CC(=O)/C=C/c2ccc(O)c(OC)c2)ccc1O [compound 3, curcumin] | 1.73 ± 0.2 µM | ∼12 |  |  | stability in the test system [1]: seemed to be stable; IC50 values with 0.1% Triton-X100 added, versus absence of detergent (human 17β-HSD2; 0.1% Triton-X100 in reaction mixture): comparable; remaining activity at 20 µM (human 17β-HSD1): 52.2 ± 7.1% |
| COc1cc(C[C@@H](C)[C@H](C)Cc2ccc(O)c(OC)c2)ccc1O [compound 4, (−)-dihydroguaiaretic acid] | 0.94 ± 0.02 µM | 8 | 7.7 ± 2.2 µM |  | effect on 17β-HSD activity in placenta microsomes (17β-HSD): no effects; selectivity over 17β-HSD1 (human 17β-HSD1; 17β-HSD2 over 17β-HSD1): ≥ 8 fold |
| O=c1c(-c2ccc(O)cc2O)coc2cc(O)cc(O)c12 [compound 9, 2′-hydroxygenistein] | 2.03 ± 0.37 µM | 0.5 | 1.09 ± 0.06 µM |  | classification (17β-HSD2 inhibition) (human 17β-HSD2; flavonoid SAR model, Table 4): active; EC50 (human ERα): 6.1 µM |
| O=C(Cc1ccc(O)c(Cl)c1)NCc1ccccc1 [compound 16, N-benzyl-2-(3-chloro-4-hydroxyphenyl)acetamide] | 3.42 ± 0.74 µM |  |  | n.i. |  |
| O=C(Cc1ccc(O)c(Cl)c1)NCCc1c[nH]c2ccccc12 [compound 17, N-(2-(1H-indol-3-yl)ethyl)-2-(3-chloro-4-hydroxyphenyl)acetamide] | 0.98 ± 0.24 µM |  |  | n.i. |  |
| O=C(Cc1ccc(O)c(Cl)c1)NCc1ccccc1Cl [compound 18, 2-(3-chloro-4-hydroxyphenyl)-N-(2-chlorobenzyl)acetamide] | 0.78 ± 0.16 µM | ∼25 |  |  | remaining activity at 20 µM (human 17β-HSD1; 20 μM compound): 54.8 ± 5.8% |
